Usually IC50 stands for the concentration at which inhibition is half-maximal. Higher therefore signals lower potency.

For two compounds, IC50 results are on record in PMC9639481, “Discovery of dual tubulin-NEDDylation inhibitors with antiproliferative activity” (Journal of Enzyme Inhibition and Medicinal Chemistry, 2022).

Some results are limits rather than exact numbers.

For experiment [1], the system named is T1, tubulin.
T1 construct: with alpha/beta-tubulin heterodimer
The experiment is described as follows: in vitro tubulin polymerisation assay. The class given is biochemical.

For experiment [2], the system named is T1, tubulin. The experiment is described as follows: in vitro tubulin polymerisation assay; supported by immunofluorescence of microtubules in HepG2 cells. It is filed as biochemical.

In the experiment on tubulin [1], `COc1ccc(CN(C(=O)CSC(=S)N2CC(C)CC(C)C2)c2cc(OC)c(OC)c(OC)c2)cc1` (centres unmarked) [C14, 2-((4-Methoxybenzyl)(3,4,5-trimethoxyphenyl)amino)-2-oxoethyl-3,5-dimethylpiperidine-1-carbodithioate] displayed an IC50 greater than 4000 nM.

For `COc1ccc(CN(C(=O)CSC(=S)N2CCCCC2)c2cc(OC)c(OC)c(OC)c2)cc1` [C11, 2-((4-Methoxybenzyl)(3,4,5-trimethoxyphenyl)amino)-2-oxoethylpiperidine-1-carbodithioate], in the experiment on tubulin [2], half-maximal inhibition (IC50) was put at 2400 nM.
